Assay results reported in patent US6462016B1 (Shiseido Company, Ltd., priority 1995, dated 2002).

What was measured:
[1] = biological target: maxadilan receptor in crude membrane fraction from the rabbit spleen; experiment: Binding test (tissue): 125I-Max, rabbit spleen crude membrane fraction; settings: read-out: dissociation constant (Kd)
Method: (§1) Likewise, crude membrane fractions were prepared, respectively, from the brain, liver, pancreas, spleen, aorta and kidney of a rabbit, and the brains of a rat, a mouse, cattle and a human being.
(§2) After completion of the reaction, ^125I-Max bound to the membrane was separated by subjecting the resultant incubation matter to suction filtration using a GF/C glass filter (Whatman GF/C), and the radioactivity of the glass filter after being dried was measured by a γ-counter.

[2] = biological target: T1, maxadilan receptor in crude membrane fraction from the rat brain (Rattus norvegicus, UniProt P32215); experiment: Binding test (tissue): 125I-Max, rat brain crude membrane fraction
T1 construct: Likewise, crude membrane fractions were prepared; from tissue; host or cells: rat brain, crude membrane fraction
T1 sequence (P32215 20-523): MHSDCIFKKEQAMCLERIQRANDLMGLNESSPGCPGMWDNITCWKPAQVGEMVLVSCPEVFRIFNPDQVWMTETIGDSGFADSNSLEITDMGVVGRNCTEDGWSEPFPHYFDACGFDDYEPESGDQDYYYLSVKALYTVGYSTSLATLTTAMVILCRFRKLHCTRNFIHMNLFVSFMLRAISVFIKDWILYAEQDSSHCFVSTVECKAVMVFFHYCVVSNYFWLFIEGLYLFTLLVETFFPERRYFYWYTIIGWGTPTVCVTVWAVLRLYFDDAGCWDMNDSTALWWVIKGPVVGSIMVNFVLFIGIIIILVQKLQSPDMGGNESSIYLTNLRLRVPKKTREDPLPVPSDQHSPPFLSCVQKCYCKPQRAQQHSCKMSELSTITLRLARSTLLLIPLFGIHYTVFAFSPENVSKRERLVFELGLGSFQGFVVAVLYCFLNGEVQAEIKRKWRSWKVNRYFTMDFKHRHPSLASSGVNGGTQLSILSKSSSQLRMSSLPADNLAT
Method: as §1, §2

[3] = biological target: T2, maxadilan receptor in crude membrane fraction from the mouse brain (Mus musculus, UniProt P70205); experiment: Binding test (tissue): 125I-Max, mouse brain crude membrane fraction
T2 construct: Likewise, crude membrane fractions were prepared; from tissue; host or cells: mouse brain, crude membrane fraction
T2 sequence (P70205 21-496): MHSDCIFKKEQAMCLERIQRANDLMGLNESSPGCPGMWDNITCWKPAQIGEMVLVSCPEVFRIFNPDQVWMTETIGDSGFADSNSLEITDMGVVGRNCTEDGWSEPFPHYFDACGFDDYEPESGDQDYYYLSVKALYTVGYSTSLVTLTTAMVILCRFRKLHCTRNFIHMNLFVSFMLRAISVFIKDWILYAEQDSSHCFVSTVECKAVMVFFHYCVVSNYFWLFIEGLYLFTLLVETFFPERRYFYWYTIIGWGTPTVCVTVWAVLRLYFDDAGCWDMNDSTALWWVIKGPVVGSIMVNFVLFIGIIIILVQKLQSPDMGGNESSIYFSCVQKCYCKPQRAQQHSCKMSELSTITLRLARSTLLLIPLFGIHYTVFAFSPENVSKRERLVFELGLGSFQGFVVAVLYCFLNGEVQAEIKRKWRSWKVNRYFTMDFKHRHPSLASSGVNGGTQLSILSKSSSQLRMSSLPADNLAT
Method: as §1, §2

[4] = biological target: T3, maxadilan receptor in crude membrane fraction from the cattle brain (Bos taurus, UniProt Q29627); experiment: Binding test (tissue): 125I-Max, cattle brain crude membrane fraction
T3 construct: Likewise, crude membrane fractions were prepared; from tissue; host or cells: cattle brain, crude membrane fraction
T3 sequence (Q29627 38-513): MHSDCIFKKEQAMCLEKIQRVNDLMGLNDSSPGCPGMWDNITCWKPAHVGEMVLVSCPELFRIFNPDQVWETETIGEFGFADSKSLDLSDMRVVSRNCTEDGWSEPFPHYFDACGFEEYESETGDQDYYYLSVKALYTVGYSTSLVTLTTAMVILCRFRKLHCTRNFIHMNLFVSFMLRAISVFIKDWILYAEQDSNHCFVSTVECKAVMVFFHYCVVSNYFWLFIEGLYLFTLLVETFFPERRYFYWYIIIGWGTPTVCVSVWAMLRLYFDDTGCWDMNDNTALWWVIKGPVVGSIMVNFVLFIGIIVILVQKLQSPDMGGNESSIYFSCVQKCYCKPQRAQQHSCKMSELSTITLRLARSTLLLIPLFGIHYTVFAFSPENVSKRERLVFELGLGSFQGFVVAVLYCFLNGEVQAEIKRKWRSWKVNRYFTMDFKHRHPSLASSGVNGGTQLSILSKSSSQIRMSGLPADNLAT
Method: as §1, §2

[5] = biological target: T4, maxadilan receptor in crude membrane fraction from the brain of a human being (Homo sapiens, UniProt P41586); experiment: Binding test (tissue): 125I-Max, human brain crude membrane fraction
T4 construct: Likewise, crude membrane fractions were prepared; from tissue; host or cells: human brain, crude membrane fraction
T4 sequence (P41586 21-468): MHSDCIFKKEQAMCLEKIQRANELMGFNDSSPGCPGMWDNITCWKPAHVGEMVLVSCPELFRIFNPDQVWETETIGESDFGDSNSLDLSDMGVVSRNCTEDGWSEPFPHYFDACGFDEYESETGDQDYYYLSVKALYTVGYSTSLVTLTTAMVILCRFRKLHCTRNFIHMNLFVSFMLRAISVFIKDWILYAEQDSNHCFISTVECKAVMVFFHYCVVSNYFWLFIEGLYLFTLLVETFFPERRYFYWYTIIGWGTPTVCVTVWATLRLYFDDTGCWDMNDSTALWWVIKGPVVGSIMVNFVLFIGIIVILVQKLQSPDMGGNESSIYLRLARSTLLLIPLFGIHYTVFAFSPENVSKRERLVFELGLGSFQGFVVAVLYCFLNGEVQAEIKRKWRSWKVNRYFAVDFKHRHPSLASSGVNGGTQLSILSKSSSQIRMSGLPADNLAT
Method: as §1, §2

[6] = system: rat adrenal medulla melanocytoma PC-12; type: cell-based
[7] = system: NBf1 cell; experiment: cAMP production in NBf1 cell; type: cell-based, human
[8] = system: rat pancreas smooth muscle MILE cell; experiment: cAMP production in MILE cell; type: cell-based
[9] = system: rabbit skin; type: in vivo

Substance: maxadilan
- Kd [1]: 0.055 nM
- maximum binding amount (Bmax) [2]: 68 fmol/mg
- maximum binding amount (Bmax) [3]: 53 fmol/mg
- maximum binding amount (Bmax) [4]: 17 fmol/mg
- specific binding to crude membrane fraction [4]: specific binding of Max is also recognized
- specific binding to crude membrane fraction [5]: specific binding of Max is also recognized
- cAMP production ([6]; PC-12 cell (1×10^6), 37° C. 10 minutes): significantly promotes cAMP production
- time course of cAMP production after stimulation ([6]; PC-12 cell, 100 nM maxadilan, 37° C., various time): conducted in an instant
- cAMP production [7]: likewise observed
- cAMP production [8]: likewise observed
- Erythema formation activity ([9]; 50 μl dilutions at various concentrations intracutaneously into white rabbits, observed 30 minutes and 2 hours after injection): 10^−12
- erythema formation action (in words) ([9]; intracutaneous injection, rabbit): superior to that of natural maxadilan
